Test results as given in patent US12360121B2, “Assay for detection of an A2E-Saposin B complex” (Syracuse University, priority 2016, dated 2025).

Target: T1, Saposin B (Homo sapiens, UniProt P07602)
T1 sequence (P07602 195-273 limits assumed): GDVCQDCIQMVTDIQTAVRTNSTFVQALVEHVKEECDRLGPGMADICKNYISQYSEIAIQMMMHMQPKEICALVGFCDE
Assay: fluorescence spectroscopy showing binding of A2E by Saposin B
Details: fluorescence spectroscopy graphs (FIG. 1A, FIG. 1B)
Text: FIG. 1A is a first fluorescence spectroscopy graph showing that Saposin B binds A2E;
FIG. 1B is a second fluorescence spectroscopy graphs showing that Saposin B binds A2E;

SMILES: CC(C=CC1=C(C)CCCC1(C)C)=CC=CC(C)=Cc1cc(C=CC=C(C)C=CC2=C(C)CCCC2(C)C)cc[n+]1CCO [A2E, N-retinylidene-N-retinylethanolamine]
- binding of A2E by Saposin B: binds
